Measurements as given in patent US20240279220A1, “INDOLE COMPOUNDS AND METHODS OF USE” (Genzyme Corporation, priority 2021, published 2024).

Each molecule was assayed on NBD1/3D (assay: Aggregation analysis using differential static light scattering (DSLS), NBD1 thermal stability). Conditions: ΔTagg versus DMSO control; compound at 100 μM.
Format: binding, Human
Procedure, shortened: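 Thermal stabilisation reported as ΔTagg, i.e. aggregation temperature relative to averaged DMSO wells. Tagg came from the inflection of differential static light scattering imaged 25–70 °C while NBD1 (0.2 mg/ml, Tris pH 7.6 buffer containing ATP, MgCl2, DTT, glycerol) was ramped 1 °C/min.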

Question: With `C[S+]([O-])c1c(Oc2cccc(-c3nc(Cc4cccc(CCC(=O)O)c4)cs3)c2)c(F)cc2[nH]ccc12` (stereo not shown) [Example 36, 3-(3-((2-(3-((6-Fluoro-4-(methylsulfinyl)-1H-indol-5-yl)oxy)phenyl)thiazol-4-yl)methyl)phenyl)propanoic acid] as the molecule, how does the “DSLS NBD1/3D Human Stability delta-T (° C.) @ 100 (μM)” value (“DSLS NBD1/3D Human Stability delta-T” for short) read?
Answer: The value was “B (B: 5-10° C.)”.

Question: For `CC(O)(c1cccc(CCC(=O)O)c1)c1csc(-c2cccc(Oc3c(F)cc4[nH]ccc4c3S(C)(=O)=O)c2)n1` (stereo not shown) [Example 37, 3-(3-(1-(2-(3-((6-Fluoro-4-(methylsulfonyl)-1H-indol-5-yl)oxy)phenyl)thiazol-4-yl)-1-hydroxyethyl)phenyl)propanoic acid], which “DSLS NBD1/3D Human Stability delta-T” value is on record?
Answer: Its value is “B (B: 5-10° C.)”.

Question: How did the “DSLS NBD1/3D Human Stability delta-T” value turn out when `CC(c1cccc(CCC(=O)O)c1)n1ccc(-c2cc(Oc3c(F)cc4[nH]ccc4c3S(C)(=O)=O)ccc2F)n1` (stereo not shown) [Example 38, 3-(3-(1-(3-(2-Fluoro-5-((6-fluoro-4-(methylsulfonyl)-1H-indol-5-yl)oxy)phenyl)-1H-pyrazol-1-yl)ethyl)phenyl)propanoic acid] was run?
Answer: The value was “B (B: 5-10° C.)”.

Question: How did the “DSLS NBD1/3D Human Stability delta-T” value turn out when `CS(=O)(=O)c1c(Oc2cccc(-c3nc(Cc4cccc(CCC(=O)O)c4)co3)c2)c(F)cc2[nH]ccc12` [Example 42, 3-(3-((2-(3-((6-Fluoro-4-(methylsulfonyl)-1H-indol-5-yl)oxy)phenyl)oxazol-4-yl)methyl)phenyl)propanoic acid] was run?
Answer: The value was “B (B: 5-10° C.)”.

Question: How did the “DSLS NBD1/3D Human Stability delta-T” value turn out when `CS(=O)(=O)c1c(Oc2ccc(F)c(-c3ncc(C4(c5cccc(CCC(=O)O)c5)OCCCO4)[nH]3)c2)c(F)cc2[nH]ccc12` [Example 44, 3-(3-(2-(2-(2-Fluoro-5-((6-fluoro-4-(methylsulfonyl)-1H-indol-5-yl)oxy)phenyl)-1H-imidazol-5-yl)-1,3-dioxan-2-yl)phenyl)propanoic acid] was run?
Answer: Its value is “A (A: T ≥ 10° C.)”.

Question: With `CS(=O)(=O)c1c(Oc2ccc(F)c(-c3ncc(C4(c5cccc(CCC(=O)O)c5)CCC4)[nH]3)c2)c(F)cc2[nH]ccc12` [Example 46, 3-(3-(1-(2-(2-fluoro-5-((6-fluoro-4-(methylsulfonyl)-1H-indol-5-yl)oxy)phenyl)-1H-imidazol-5-yl)cyclobutyl)phenyl)propanoic acid] as the molecule, how does the “DSLS NBD1/3D Human Stability delta-T” value read?
Answer: Its value is “A (A: T ≥ 10° C.)”.

Question: How did the “DSLS NBD1/3D Human Stability delta-T” value turn out when `CS(=O)(=O)c1c(Oc2ccc(F)c(-c3nc(C4(c5cccc(CCC(=O)O)c5)CCCC4)c[nH]3)c2)c(F)cc2[nH]ccc12` [Example 47, 3-(3-(1-(2-(2-fluoro-5-((6-fluoro-4-(methylsulfonyl)-1H-indol-5-yl)oxy)phenyl)-1H-imidazol-5-yl)cyclopentyl)phenyl)propanoic acid] was run?
Answer: Its value is “A (A: T ≥ 10° C.)”.

Question: With `CC(C#N)(c1cccc(CCC(=O)O)c1)c1c[nH]c(-c2cc(Oc3c(F)cc4[nH]ccc4c3S(C)(=O)=O)ccc2F)n1` (stereo not shown) [Example 48, 3-(3-(1-Cyano-1-(2-(2-fluoro-5-((6-fluoro-4-(methylsulfonyl)-1H-indol-5-yl)oxy)phenyl)-1H-imidazol-4-yl)ethyl)phenyl)propanoic acid] as the molecule, how does the “DSLS NBD1/3D Human Stability delta-T” value read?
Answer: The value was “A (A: T ≥ 10° C.)”.

Question: `CC(C#N)(c1cccc(CCC(=O)O)c1)c1cnc(-c2cc(Oc3c(F)c(F)c4[nH]ccc4c3S(C)(=O)=O)ccc2F)[nH]1` (stereo not shown) [Example 49, 3-(3-(1-Cyano-1-(2-(5-((6,7-difluoro-4-(methylsulfonyl)-1H-indol-5-yl)oxy)-2-fluorophenyl)-1H-imidazol-5-yl)ethyl)phenyl)propanoic acid] was tested. Which “DSLS NBD1/3D Human Stability delta-T” value did it give?
Answer: Its value is “A (A: T ≥ 10° C.)”.

Question: With `Cc1c(Oc2ccc(F)c(-c3ncc(C(C)(C#N)c4cccc(CCC(=O)O)c4)[nH]3)c2)c(F)cc2[nH]ccc12` (stereo not shown) [Example 50, 3-(3-(1-cyano-1-(2-(2-fluoro-5-((6-fluoro-4-methyl-1H-indol-5-yl)oxy)phenyl)-1H-imidazol-5-yl)ethyl)phenyl)propanoic acid] as the molecule, how does the “DSLS NBD1/3D Human Stability delta-T” value read?
Answer: The value was “B (B: 5-10° C.)”.

Question: How did the “DSLS NBD1/3D Human Stability delta-T” value turn out when `CCC(C#N)(c1cccc(CCC(=O)O)c1)c1c[nH]c(-c2cc(Oc3c(F)cc4[nH]ccc4c3C)ccc2F)n1` (stereo not shown) [Example 51, 3-(3-(1-cyano-1-(2-(2-fluoro-5-((6-fluoro-4-methyl-1H-indol-5-yl)oxy)phenyl)-1H-imidazol-4-yl)propyl)phenyl)propanoic acid] was run?
Answer: Its value is “A (A: T ≥ 10° C.)”.

Question: `CC(C#N)(c1cccc(CCC(=O)O)c1)c1cnc(-c2cc(Oc3c(F)c(F)c4[nH]ccc4c3C3CC3)ccc2F)[nH]1` (stereo not shown) [Example 53, 3-(3-(1-cyano-1-(2-(5-((4-cyclopropyl-6,7-difluoro-1H-indol-5-yl)oxy)-2-fluorophenyl)-1H-imidazol-5-yl)ethyl)phenyl)propanoic acid] was tested. Which “DSLS NBD1/3D Human Stability delta-T” value did it give?
Answer: Its value is “B (B: 5-10° C.)”.

Question: `CC(C#N)(c1cccc(CCC(=O)O)c1)c1cnc(-c2cc(Oc3c(F)c(F)c4[nH]ccc4c3F)ccc2F)[nH]1` (stereo not shown) [Example 54, 3-(3-(1-cyano-1-(2-(2-fluoro-5-((4,6,7-trifluoro-1H-indol-5-yl)oxy)phenyl)-1H-imidazol-5-yl)ethyl)phenyl)propanoic acid] was tested. Which “DSLS NBD1/3D Human Stability delta-T” value did it give?
Answer: Its value is “B (B: 5-10° C.)”.

Question: How did the “DSLS NBD1/3D Human Stability delta-T” value turn out when `CC(C#N)(c1cccc(CCC(=O)O)c1)c1c[nH]c(-c2cc(Oc3c(F)cc4[nH]ccc4c3CC(F)F)ccc2F)n1` (stereo not shown) [Example 55, 3-(3-(1-cyano-1-(2-(5-((4-(2,2-difluoroethyl)-6-fluoro-1H-indol-5-yl)oxy)-2-fluorophenyl)-1H-imidazol-4-yl)ethyl)phenyl)propanoic acid] was run?
Answer: The value was “B (B: 5-10° C.)”.

Question: How did the “DSLS NBD1/3D Human Stability delta-T” value turn out when `Cc1c(Oc2ccc(F)c(-c3ncc(C(C)(C#N)c4cccc(CCC(=O)O)c4)[nH]3)c2)c(F)c(F)c2[nH]ccc12` (stereo not shown) [Example 56, 3-(3-(1-cyano-1-(2-(5-((6,7-difluoro-4-methyl-1H-indol-5-yl)oxy)-2-fluorophenyl)-1H-imidazol-5-yl)ethyl)phenyl)propanoic acid] was run?
Answer: The value was “B (B: 5-10° C.)”.

Question: With `Cc1c(Oc2ccc(F)c(-c3ncc(C(C)(C#N)c4cccc(CCC(=O)O)c4)[nH]3)c2)c(F)c(F)c2[nH]cc(Cl)c12` (stereo not shown) [Example 57, 3-(3-(1-(2-(5-((3-chloro-6,7-difluoro-4-methyl-1H-indol-5-yl)oxy)-2-fluorophenyl)-1H-imidazol-5-yl)-1-cyanoethyl)phenyl)propanoic acid] as the molecule, how does the “DSLS NBD1/3D Human Stability delta-T” value read?
Answer: Its value is “B (B: 5-10° C.)”.

Question: Which “DSLS NBD1/3D Human Stability delta-T” value does the source give for `CC(C#N)(c1cccc(CCC(=O)O)c1)c1c[nH]c(-c2cc(Oc3c(F)cc4[nH]ccc4c3F)ccc2F)n1` (stereo not shown) [Example 58, 3-(3-(1-cyano-1-(2-(5-((4,6-difluoro-1H-indol-5-yl)oxy)-2-fluorophenyl)-1H-imidazol-4-yl)ethyl)phenyl)propanoic acid] here?
Answer: The value was “B (B: 5-10° C.)”.

Question: For `[2H]C([2H])([2H])C(C#N)(c1cccc(CCC(=O)O)c1)c1cnc(-c2cc(Oc3c(F)cc4[nH]ccc4c3C)ccc2F)[nH]1` (stereo not shown) [Example 59, 3-(3-(1-cyano-1-(2-(2-fluoro-5-((6-fluoro-4-methyl-1H-indol-5-yl)oxy)phenyl)-1H-imidazol-5-yl)ethyl-2,2,2-d3)phenyl)propanoic acid], which “DSLS NBD1/3D Human Stability delta-T” value is on record?
Answer: The value was “B (B: 5-10° C.)”.

Question: Which “DSLS NBD1/3D Human Stability delta-T” value does the source give for `[2H]C([2H])([2H])C(C#N)(c1cccc(CCC(=O)O)c1)c1cnc(-c2cc(Oc3c(F)cc4[nH]ccc4c3F)ccc2F)[nH]1` (stereo not shown) [Example 60, 3-(3-(1-cyano-1-(2-(5-((4,6-difluoro-1H-indol-5-yl)oxy)-2-fluorophenyl)-1H-imidazol-5-yl)ethyl-2,2,2-d3)phenyl)propanoic acid] here?
Answer: Its value is “B (B: 5-10° C.)”.
